From patent US20100172854A1, “ANTIBACTERIAL FORMULATIONS” (priority 2007, published 2010)
Converted amounts (≈) assume the structure as drawn.

Tests used:
[1] = system: P. acnes PRP-053; assay: Agar dilution MIC assay; assay type: cell-based, Propionibacterium acnes; settings: Cutibacterium acnes, PRP053, resistance phenotype Tet/MLS
Procedure: (§1) The propionibacteria were cultured and maintained on Wilkins-Chalgren Anaerobe Medium (agar and broth) at pH 6.0; all cultures were incubated anaerobically at 37° C. for 72 hours.
(§2) This is a standard international method for quantitatively assessing the antimicrobial activity of a compound in a solid medium. The test compound was prepared to 40× the highest concentration required (e.g. 10 mg/ml for a final concentration of 250 μg/ml) and a series of doubling dilutions were performed in a suitable solvent. A set amount of these antimicrobial stock solutions was then added to molten agar medium (ca. 55° C.), mixed thoroughly, poured into sterile Petri dishes and allowed to cool/set. The culture medium was as described above.
(§3) A Multipoint™ Inoculator (AQS Manufacturing Ltd, UK) was used to inoculate the plates by spotting the inocula onto the surface of the agar, delivering approximately 1 to 2 μl per spot (yielding 10^5 CFU (colony forming units) per spot).
(§4) The plate(s) were then incubated under the conditions described above, following which they were examined visually for signs of bacterial growth. The MIC value was ascertained when there was a marked reduction in, or total loss of, growth on the test plate at the lowest concentration as compared to that of the growth on the control plate.
(§5) The assays were conducted in triplicate and included a positive control (culture medium, diluting solvent and inoculum).

[2] = system: P. acnes PRP-010; assay: Agar dilution MIC assay; assay type: cell-based, Propionibacterium acnes; settings: Cutibacterium acnes, PRP010, resistance phenotype MLSK
Procedure: as §1, §2, §3, §4, §5

[3] = system: P. acnes PRP-059; assay: Agar dilution MIC assay; assay type: cell-based, Propionibacterium acnes; settings: Cutibacterium acnes, PRP059, resistance phenotype MLS
Procedure: as §1, §2, §3, §4, §5

[4] = system: P. acnes PRP-068; assay: Agar dilution MIC assay; assay type: cell-based, Propionibacterium acnes; settings: Cutibacterium acnes, PRP068, resistance phenotype Ery
Procedure: as §1, §2, §3, §4, §5

[5] = system: P. acnes PRP-039; assay: Agar dilution MIC assay; assay type: cell-based, Propionibacterium acnes; settings: Cutibacterium acnes, PRP039, resistance phenotype Tet/MLS
Procedure: as §1, §2, §3, §4, §5

[6] = system: P. acnes PRP-102; assay: Agar dilution MIC assay; assay type: cell-based, Propionibacterium acnes; settings: Cutibacterium acnes, PRP102, resistance phenotype Tet/MLS
Procedure: as §1, §2, §3, §4, §5

[7] = system: P. acnes PRP-004; assay: Agar dilution MIC assay; assay type: cell-based, Propionibacterium acnes; settings: Cutibacterium acnes, PRP004, resistance phenotype Tet
Procedure: as §1, §2, §3, §4, §5

[8] = system: P. acnes PRP-003; assay: Agar dilution MIC assay; assay type: cell-based, Propionibacterium acnes; settings: Cutibacterium acnes, PRP003, resistance phenotype Tet
Procedure: as §1, §2, §3, §4, §5

[9] = system: P. acnes PRP-046; assay: Agar dilution MIC assay; assay type: cell-based, Propionibacterium acnes; settings: Cutibacterium acnes, PRP046, resistance phenotype None
Procedure: as §1, §2, §3, §4, §5

[10] = system: P. acnes PRP-002; assay: Agar dilution MIC assay; assay type: cell-based, Propionibacterium acnes; settings: Cutibacterium acnes, PRP002, resistance phenotype Tet/MLS
Procedure: as §1, §2, §3, §4, §5

[11] = system: P. acnes PRP-026; assay: Agar dilution MIC assay; assay type: cell-based, Propionibacterium acnes; settings: Cutibacterium acnes, PRP026, resistance phenotype MLS
Procedure: as §1, §2, §3, §4, §5

[12] = system: P. acnes PRP-017; assay: Agar dilution MIC assay; assay type: cell-based, Propionibacterium acnes; settings: Cutibacterium acnes, PRP017, resistance phenotype MLS
Procedure: as §1, §2, §3, §4, §5

[13] = system: P. acnes PRP-023; assay: Agar dilution MIC assay; assay type: cell-based, Propionibacterium acnes; settings: Cutibacterium acnes, PRP023, resistance phenotype MLSK
Procedure: as §1, §2, §3, §4, §5

[14] = system: P. acnes PRP-008; assay: Agar dilution MIC assay; assay type: cell-based, Propionibacterium acnes; settings: Cutibacterium acnes, PRP008, resistance phenotype Clin
Procedure: as §1, §2, §3, §4, §5

[15] = system: P. acnes PPR-007; assay: Agar dilution MIC assay; assay type: cell-based, Propionibacterium acnes; settings: Cutibacterium acnes, PPR007
Procedure: as §1, §2, §3, §4, §5

[16] = system: P. acnes PRP-101; assay: Agar dilution MIC assay; assay type: cell-based, Propionibacterium acnes; settings: Cutibacterium acnes, PRP101, resistance phenotype Tet/MLS
Procedure: as §1, §2, §3, §4, §5

[17] = system: Propionibacterium acnes NCTC 737; assay: MBC assay; assay type: cell-based; settings: P. acnes NCTC 737
Procedure: as §1
(§6) This assay, normally carried out after an MIC assay, determines the minimum concentration of a compound that is lethal to the micro-organism being tested.
(§7) These samples were then individually sub-cultured on antibiotic-free agar medium, under the incubation conditions described above. Following incubation they were examined visually for microbial growth.

[18] = system: Streptococcus mutans ATCC 35668; assay: MBC assay; assay type: cell-based
Procedure: (§8) The S. mutans strains were cultured and maintained on Wilkins-Chalgren Anaerobe Medium (agar and broth) at pH 7.0 supplemented with 1 g/L glucose; all cultures were incubated at 37° C. for 48 h in an atmosphere containing 5% CO2.
as §6, §7

[19] = system: Streptococcus mutans ATCC 25175; assay: MBC assay; assay type: cell-based
Procedure: as §8, §6, §7

[20] = system: Enterococcus faecalis ATCC 29212; assay: MBC assay; assay type: cell-based; settings: ATCC29212
Procedure: as §6, §7

[21] = system: a range of test bacteria; settings: compound isolated from Aspergillus fumigatus, believed to be Antioxidant 2246; cited from earlier work
[22] = system: Propionibacterium acnes NCTC 737; assay: MIC assay; assay type: cell-based; settings: Cutibacterium acnes, NCTC737; P. acnes NCTC 737
Procedure: as §1
This is a standard international method for quantitatively assessing the antimicrobial activity of a compound in a liquid medium. The method used a sterile 96-well microtitre plate, capable of holding about 200 μl of liquid per well. The wells contained liquid culture medium and ranges of decreasing concentrations of the relevant test compound in doubling dilutions (e.g. 1000, 500, 250, 125 . . . μg/ml, etc. down to 0.49 μg/ml). The culture media were as described above.
The wells were inoculated with a liquid suspension of freshly grown micro-organism and incubated under the conditions described above. After incubation, the microtitre plate was examined visually (with the aid of a light box) for cloudiness in each well, which would indicate microbial growth. The MIC value was recorded as the lowest concentration of test compound required to inhibit microbial growth, i.e. the lowest concentration for which the liquid in the well remained clear.
The assays included both negative (culture medium with no micro-organisms) and positive (culture medium plus diluting solvent plus micro-organism) controls.

Cc1cc(Cc2cc(C)cc(C(C)(C)C)c2O)c(O)c(C(C)(C)C)c1 [AO 2246, 2,2′-methylene-bis(4-methyl-6-tert-butylphenol)]
MIC [1]: 3.9 µg/mL (≈ 11.5 µM) | MIC [2]: 3.9 µg/mL (≈ 11.5 µM) | MIC [3]: 3.9 µg/mL (≈ 11.5 µM) | MIC [4]: 3.9 µg/mL (≈ 11.5 µM) | MIC [5]: 3.9 µg/mL (≈ 11.5 µM) | MIC [6]: 3.9 µg/mL (≈ 11.5 µM) | MIC [7]: 3.9 µg/mL (≈ 11.5 µM) | MIC [8]: 3.9 µg/mL (≈ 11.5 µM) | MIC [9]: 3.9 µg/mL (≈ 11.5 µM) | MIC [10]: 3.9 µg/mL (≈ 11.5 µM) | MIC [11]: 3.9 µg/mL (≈ 11.5 µM) | MIC [12]: 3.9 µg/mL (≈ 11.5 µM) | MIC [13]: 3.9 µg/mL (≈ 11.5 µM) | MIC [14]: 1.95 µg/mL (≈ 5.73 µM) | MIC [15]: 1.95 µg/mL (≈ 5.73 µM) | MIC [16]: 3.9 µg/mL (≈ 11.5 µM) | MBC ([17]; Cutibacterium acnes, NCTC737): 15.6 µg/mL (≈ 45.8 µM) | MIC/MBC Ratio [17]: 0.25 | MIC/MBC Ratio [18]: 0.25 | MBC ([18]; ATCC35668): 31.2 µg/mL (≈ 91.8 µM) | MIC/MBC Ratio [19]: 0.5 | MBC ([19]; ATCC25175): 62.5 µg/mL (≈ 184 µM) | MBC ([20]; Enterococcus faecalis ATCC 29212): 7.8 µg/mL (≈ 22.9 µM) | MIC/MBC Ratio ([20]; Enterococcus faecalis): 0.25 | in vitro antimicrobial activity [21]: no in vitro antimicrobial activity | MIC [22]: 3.9 µg/mL (≈ 11.5 µM)
